# According to patent publication US20040044055A1, “N-alkoxlyalkyl-substituted benzimidazoles and the use thereof as an agent against parastic protozoans” (priority 2000, published 2004):
# Tests used:
# Assay type in all cases: in vivo
# Eimeria tenella = experiment: Cage experiment on coccidiosis/chicks; settings: chicks; for Efficacy against Eimeria tenella: 3rd figure of cell
# Experimental: (§1) 8- to 12- day-old male chicks (e.g. LSL Brinkschulte/Senden) which have been reared coccidia-free receive the compounds according to the invention (test substances) in the concentration indicated in ppm with the feed from 3 days before (day −3) infection (=a.i.) until 8 (9) days after infection (=p.i.). 3 animals are kept in each cage. One or more groups of this type are employed per dose. Infection is carried out by means of a stomach tube directly into the crop with approximately 100,000 sporulated oocysts of Eimeria acervulina and with approximately 30,000 oocysts each of E. maxima and 40,000 sporulated oocysts of E. tenella. These are highly virulent strains. The exact infection dose is adjusted so that, if possible, one of three experimentally infected untreated chicks dies due to the infection. For assessment of the efficacy, the following criteria are taken into account: weight increase from the start of the experiment to the end of the experiment, death rate due to infection, macroscopic assessment of the faeces with respect to diarrhoea and excretion of blood on days 5 and 7 p.i. (assessment 0 to 6), macroscopic assessment of the intestinal mucosa, in particular of the appendices (assessment 0 to 6) and the oocyst excretion as well as the proportion (in %) of the oocysts sporulating in the course of 24 hours. The number of oocysts in the faeces was determined with the aid of a McMaster counting chamber (see Engelbrecht and coworkers “Parasitologische Arbeitsmethoden in Medizin and Veterinärmedizin” [Parasitological Working Methods in Medicine and Veterinary Medicine], Akademie-Verlag, Berlin (1965)). The individual findings are related to the untreated non-infected control groups and a total score is calculated (cf. A. Haberkorn (1986), pp. 263 to 270 in Research in Avian Coccidiosis ed L. R. McDougald, L. P. Joyner, P. L. Long, Proceedings of the Georgia Coccidiosis Conference, Nov. 18-20, 1985, Athens/Ga. USA).
# (§2) In the column “ppm”, the concentration of the active compound employed in the feed is indicated in ppm.
# (§3) In the column “mortality”, the percentage of the dead animals is indicated under % and the number of dead animals/animals employed in the experiment is indicated under n.
# (§4) In the column “weight % of not inf. control”, the ratio of the weight of the treated animals to the weight of the non-infected control group is indicated.
# (§5) In the columns “dropping scores”, “lesion score” and “oocyst control”, individual details of the action are given.
# (§6) In the column “% efficacy”, the total score is assessed; 0% means no action, 100% means full action.
# Eimeria maxima = experiment: Cage experiment on coccidiosis/chicks; settings: chicks; for Efficacy against Eimeria maxima: 2nd figure of cell
# Experimental: as §1, §2, §3, §4, §5, §6
# Eimeria acervulina = experiment: Cage experiment on coccidiosis/chicks; settings: chicks; for Efficacy against Eimeria acervulina: 1st figure of cell
# Experimental: as §1, §2, §3, §4, §5, §6
# [1] = tested on: Eimeria acervulina, Eimeria maxima and Eimeria tenella; experiment: Cage experiment on coccidiosis/chicks, mixed experimental infection; settings: chicks; for dropping scores / lesion score: assessment 0 to 6; for mortality n: dead animals/animals employed; for % efficay tot.: total score
# Experimental: as §1, §2, §3, §4, §5, §6
compound,measurement,setting,value
CCOCn1c(C(F)(F)F)nc2cc(OC(F)(F)F)c(C(F)(F)F)cc21 [Ex. 1],Efficacy against Eimeria tenella,Eimeria tenella; 1 ppm in feed,1
same,Efficacy against Eimeria tenella,Eimeria tenella; 2.5 ppm in feed,2
same,Efficacy against Eimeria tenella,Eimeria tenella; 5 ppm in feed,2
same,Efficacy against Eimeria tenella,Eimeria tenella; 7.5 ppm in feed,2
same,Efficacy against Eimeria tenella,Eimeria tenella; 10 ppm in feed,1
same,Efficacy against Eimeria maxima,Eimeria maxima; 1 ppm in feed,1
same,Efficacy against Eimeria maxima,Eimeria maxima; 2.5 ppm in feed,2
same,Efficacy against Eimeria maxima,Eimeria maxima; 5 ppm in feed,2
same,Efficacy against Eimeria maxima,Eimeria maxima; 7.5 ppm in feed,2
same,Efficacy against Eimeria maxima,Eimeria maxima; 10 ppm in feed,2
same,Efficacy against Eimeria acervulina,Eimeria acervulina; 1 ppm in feed,0
same,Efficacy against Eimeria acervulina,Eimeria acervulina; 2.5 ppm in feed,2
same,Efficacy against Eimeria acervulina,Eimeria acervulina; 5 ppm in feed,2
same,Efficacy against Eimeria acervulina,Eimeria acervulina; 7.5 ppm in feed,2
same,Efficacy against Eimeria acervulina,Eimeria acervulina; 10 ppm in feed,2
CC(C)COCn1c(C(F)(F)F)nc2cc(OC(F)(F)F)c(C(F)(F)F)cc21 [Ex. 2],Efficacy against Eimeria tenella,Eimeria tenella; 1 ppm in feed,1
same,Efficacy against Eimeria tenella,Eimeria tenella; 2.5 ppm in feed,1
same,Efficacy against Eimeria tenella,Eimeria tenella; 5 ppm in feed,0
same,Efficacy against Eimeria tenella,Eimeria tenella; 7.5 ppm in feed,1
same,Efficacy against Eimeria tenella,Eimeria tenella; 10 ppm in feed,1
same,Efficacy against Eimeria tenella,Eimeria tenella; 25 ppm in feed,2
same,Efficacy against Eimeria tenella,Eimeria tenella; 50 ppm in feed,2
same,oocyst in % of inf. control ten.,Eimeria tenella; Ex. 2 2.5 ppm in feed,>100%
same,oocyst in % of inf. control ten.,Eimeria tenella; Ex. 2 5 ppm in feed,98%
same,oocyst in % of inf. control ten.,Eimeria tenella; Ex. 2 7.5 ppm in feed,23%
same,oocyst in % of inf. control ten.,Eimeria tenella; Ex. 2 10 ppm in feed,65%
same,Efficacy against Eimeria maxima,Eimeria maxima; 1 ppm in feed,1
same,Efficacy against Eimeria maxima,Eimeria maxima; 2.5 ppm in feed,1
same,Efficacy against Eimeria maxima,Eimeria maxima; 5 ppm in feed,1
same,Efficacy against Eimeria maxima,Eimeria maxima; 7.5 ppm in feed,1
same,Efficacy against Eimeria maxima,Eimeria maxima; 10 ppm in feed,2
same,Efficacy against Eimeria maxima,Eimeria maxima; 25 ppm in feed,2
same,Efficacy against Eimeria maxima,Eimeria maxima; 50 ppm in feed,2
same,oocyst in % of inf. control max.,Eimeria maxima; Ex. 2 2.5 ppm in feed,>100%
same,oocyst in % of inf. control max.,Eimeria maxima; Ex. 2 5 ppm in feed,0%
same,oocyst in % of inf. control max.,Eimeria maxima; Ex. 2 7.5 ppm in feed,0%
same,oocyst in % of inf. control max.,Eimeria maxima; Ex. 2 10 ppm in feed,>100%
same,Efficacy against Eimeria acervulina,Eimeria acervulina; 1 ppm in feed,1
same,Efficacy against Eimeria acervulina,Eimeria acervulina; 2.5 ppm in feed,1
same,Efficacy against Eimeria acervulina,Eimeria acervulina; 5 ppm in feed,0
same,Efficacy against Eimeria acervulina,Eimeria acervulina; 7.5 ppm in feed,1
same,Efficacy against Eimeria acervulina,Eimeria acervulina; 10 ppm in feed,1
same,Efficacy against Eimeria acervulina,Eimeria acervulina; 25 ppm in feed,2
same,Efficacy against Eimeria acervulina,Eimeria acervulina; 50 ppm in feed,2
same,oocyst in % of inf. control ac.,Eimeria acervulina; Ex. 2 2.5 ppm in feed,>100%
same,oocyst in % of inf. control ac.,Eimeria acervulina; Ex. 2 5 ppm in feed,54%
same,oocyst in % of inf. control ac.,Eimeria acervulina; Ex. 2 7.5 ppm in feed,56%
same,oocyst in % of inf. control ac.,Eimeria acervulina; Ex. 2 10 ppm in feed,93%
same,mortality %,[1]; Ex. 2 2.5 ppm in feed,33%
same,oocyst in % of inf. control tot.,[1]; Ex. 2 2.5 ppm in feed,>100%
same,weight % of not inf. control,[1]; Ex. 2 2.5 ppm in feed,33%
same,dropping scores,[1]; Ex. 2 2.5 ppm in feed,6
same,lesion score,[1]; Ex. 2 2.5 ppm in feed,6
same,mortality n,[1]; Ex. 2 2.5 ppm in feed,1/3
same,% efficay tot.,[1]; Ex. 2 2.5 ppm in feed,2%
same,mortality %,[1]; Ex. 2 5 ppm in feed,33%
same,oocyst in % of inf. control tot.,[1]; Ex. 2 5 ppm in feed,73%
same,weight % of not inf. control,[1]; Ex. 2 5 ppm in feed,65%
same,dropping scores,[1]; Ex. 2 5 ppm in feed,6
same,lesion score,[1]; Ex. 2 5 ppm in feed,6
same,mortality n,[1]; Ex. 2 5 ppm in feed,1/3
same,% efficay tot.,[1]; Ex. 2 5 ppm in feed,37%
same,mortality %,[1]; Ex. 2 7.5 ppm in feed,33%
same,oocyst in % of inf. control tot.,[1]; Ex. 2 7.5 ppm in feed,41%
same,weight % of not inf. control,[1]; Ex. 2 7.5 ppm in feed,74%
same,dropping scores,[1]; Ex. 2 7.5 ppm in feed,6
same,lesion score,[1]; Ex. 2 7.5 ppm in feed,6
same,mortality n,[1]; Ex. 2 7.5 ppm in feed,1/3
same,% efficay tot.,[1]; Ex. 2 7.5 ppm in feed,36%
same,mortality %,[1]; Ex. 2 10 ppm in feed,0%
same,oocyst in % of inf. control tot.,[1]; Ex. 2 10 ppm in feed,83%
same,weight % of not inf. control,[1]; Ex. 2 10 ppm in feed,69%
same,dropping scores,[1]; Ex. 2 10 ppm in feed,6
same,lesion score,[1]; Ex. 2 10 ppm in feed,6
same,mortality n,[1]; Ex. 2 10 ppm in feed,0/3
same,% efficay tot.,[1]; Ex. 2 10 ppm in feed,17%
CCOCn1c(C(F)(F)F)nc2c(C(F)(F)F)cc(OC(F)(F)F)cc21 [Ex. 3],Efficacy against Eimeria tenella,Eimeria tenella; 1 ppm in feed,0
same,Efficacy against Eimeria tenella,Eimeria tenella; 2.5 ppm in feed,1
same,Efficacy against Eimeria tenella,Eimeria tenella; 5 ppm in feed,2
same,Efficacy against Eimeria tenella,Eimeria tenella; 7.5 ppm in feed,2
same,Efficacy against Eimeria tenella,Eimeria tenella; 10 ppm in feed,1
same,Efficacy against Eimeria maxima,Eimeria maxima; 1 ppm in feed,0
same,Efficacy against Eimeria maxima,Eimeria maxima; 2.5 ppm in feed,2
same,Efficacy against Eimeria maxima,Eimeria maxima; 5 ppm in feed,2
same,Efficacy against Eimeria maxima,Eimeria maxima; 7.5 ppm in feed,2
same,Efficacy against Eimeria maxima,Eimeria maxima; 10 ppm in feed,1
same,Efficacy against Eimeria acervulina,Eimeria acervulina; 1 ppm in feed,0
same,Efficacy against Eimeria acervulina,Eimeria acervulina; 2.5 ppm in feed,2
same,Efficacy against Eimeria acervulina,Eimeria acervulina; 5 ppm in feed,2
same,Efficacy against Eimeria acervulina,Eimeria acervulina; 7.5 ppm in feed,2
same,Efficacy against Eimeria acervulina,Eimeria acervulina; 10 ppm in feed,1
"CO[C@@H]1[C@@H](OC)[C@H](C)[C@@](O)(CC(=O)O)O[C@H]1[C@H](C)[C@H]1O[C@@]2(CC[C@@](C)([C@H]3CC[C@@](C)([C@@H]4O[C@@H]([C@H]5O[C@](C)(O)[C@H](C)C[C@@H]5C)C[C@@H]4O[C@@H]4C[C@H](OC)[C@@H](OC)[C@H](C)O4)O3)O2)C[C@H](O)[C@H]1C [MAD, maduramicin, reference compound]",oocyst in % of inf. control ten.,Eimeria tenella; MAD 1 ppm in feed,85%
same,oocyst in % of inf. control ten.,Eimeria tenella; MAD 2 ppm in feed,>100%
same,oocyst in % of inf. control ten.,Eimeria tenella; MAD 3 ppm in feed,75%
same,oocyst in % of inf. control max.,Eimeria maxima; MAD 1 ppm in feed,>100%
same,oocyst in % of inf. control max.,Eimeria maxima; MAD 2 ppm in feed,>100%
same,oocyst in % of inf. control max.,Eimeria maxima; MAD 3 ppm in feed,>100%
same,oocyst in % of inf. control ac.,Eimeria acervulina; MAD 1 ppm in feed,>100%
same,oocyst in % of inf. control ac.,Eimeria acervulina; MAD 2 ppm in feed,>100%
same,oocyst in % of inf. control ac.,Eimeria acervulina; MAD 3 ppm in feed,>100%
same,mortality %,[1]; MAD 1 ppm in feed,67%
same,oocyst in % of inf. control tot.,[1]; MAD 1 ppm in feed,>100%
same,weight % of not inf. control,[1]; MAD 1 ppm in feed,17%
same,dropping scores,[1]; MAD 1 ppm in feed,6
same,lesion score,[1]; MAD 1 ppm in feed,6
same,mortality n,[1]; MAD 1 ppm in feed,2/3
same,% efficay tot.,[1]; MAD 1 ppm in feed,0%
same,mortality %,[1]; MAD 2 ppm in feed,0%
same,oocyst in % of inf. control tot.,[1]; MAD 2 ppm in feed,>100%
same,weight % of not inf. control,[1]; MAD 2 ppm in feed,82%
same,dropping scores,[1]; MAD 2 ppm in feed,2
same,lesion score,[1]; MAD 2 ppm in feed,6
same,mortality n,[1]; MAD 2 ppm in feed,0/3
same,% efficay tot.,[1]; MAD 2 ppm in feed,29%
same,mortality %,[1]; MAD 3 ppm in feed,0%
same,oocyst in % of inf. control tot.,[1]; MAD 3 ppm in feed,>100%
same,weight % of not inf. control,[1]; MAD 3 ppm in feed,98%
same,dropping scores,[1]; MAD 3 ppm in feed,0
same,lesion score,[1]; MAD 3 ppm in feed,1
same,mortality n,[1]; MAD 3 ppm in feed,0/3
same,% efficay tot.,[1]; MAD 3 ppm in feed,44%
